Read-outs that look alike come from different tables or passages of the source.
How the values were obtained:
[1] = test system: B16F10 (murine melanoma) cells; assay: In vitro cytotoxicity, PrestoBlue assay, B16F10; format: cell-based; settings: read-out: IC50 ± SD, B16F10
Experimental: (§1) The synthesized compounds were tested and evaluated for their cytotoxicity using an in vitro cytotoxicity assay. We studied five cancer cell lines and one non-cancerous cell line. The cells were purchased from the American Type Culture Collection (ATCC), United States, including HeLa (cervical), LoVo (colorectal), MCF-7 (breast), SKOV3 (ovarian), B16F10 (murine melanoma), and HaCaT (human keratinocyte). Dulbecco’s modified Eagle’s medium (containing 10% FBS) was used to culture HeLa, MCF-7, B16F10, and HaCaT cells, while RPMI 1640 medium (containing 10% FBS) was used for SKOV3 and LoVo cells. The cells were cultured in 25 cm^2 culture flasks (Corning, Corning, NY, USA) in a humidified atmosphere of 5% CO2 at 37 °C and passaged every three days with standard Trypsin-EDTA solution (Gibco, Thermo Fisher Scientific, Waltham, MA, USA). All compounds were initially prepared as stock solutions at a concentration of 10 mM (in DMSO). Serial dilutions were performed in the indicated medium to achieve the required concentration gradient of compounds (20 µM, 10 µM, 5 µM, 2.5 µM, 1.25 µM, 0.625 µM, 0.312 µM). The maximum percentage of DMSO used in the compound solutions was 0.1%, based on the procedure previously described by our group.
(§2) The PrestoBlue assay was performed according to the method previously reported by Strus et al.. The cells (LoVo and B16F10) were seeded in the indicated medium in a 96-well culture plate (Nest Biotechnology) at a density of 1 × 10^4 cells per well (100 µL) and incubated at 37 °C in a 5% CO2 atmosphere. After 24 h of incubation, 100 µL aliquots of the compounds in medium were added to each well, and the cells were further incubated for 48 h. After 48 h, the old medium was removed, and 100 µL of fresh medium was added. Then, 10 µL of PrestoBlue solution (Thermo Fisher Scientific, Waltham, MA, USA) was added to each well and incubated for 60 min. The fluorescence intensity was measured with excitation at 544 nm and emission at 615 nm using a Fluorstar microplate reader (BMG Labtech, Ortenberg, Germany). The results were expressed as a percentage of the intensity relative to that of control cells (non-treated cells).
(§3) Data analysis was carried out using GraphPad Prism 5.0.3. Calculations were performed using MS-Excel version 2021. The cytotoxic effect was expressed as the relative viability of treated cells (percentage growth control) and was calculated as follows: % relative viability = Ae−Ab/Ac−Ab×100% , where Ae is experimental absorbance/fluorescence intensity, Ac is the absorbance/ fluorescence intensity of growth control (only cells with medium), and Ab is the absorbance/fluorescence intensity of a blank (only medium). The IC50 values were obtained by using the sigmoidal dose–response function in GraphPad Prism. The results were expressed as mean ± standard deviation (SD).

[2] = test system: HeLa (cervix cancer) cells; assay: In vitro cytotoxicity, crystal violet assay, HeLa; format: cell-based, human
Experimental: as §1
(§4) This assay was performed in reference to the method already described. In brief, the cell lines (HeLa, MCF-7, and SKOV-3) were seeded in the indicated medium in a 96-well culture plate (Nest Biotechnology, Wuxi, China) at a density of 1 × 10^4 cells per well (100 µL) in quadruplicates and then incubated at 37 °C in a 5% CO2 atmosphere. After 24 h of incubation, 100 µL aliquots of the compounds in medium at increasing concentrations were added to each well, and the cells were further incubated for 48 h. After the incubation period, the cells were washed with PBS twice, and then with 70% ethanol, followed by staining with 0.05% crystal violet solution in water (ChemPur, Piekary Slaskie, Poland) for 20 min. The excess crystal violet was washed out with distilled water several times. The stained cells then solubilized in 1% Triton™ X-100 Surfact-Amps (POCH SA, Gliwice, Poland) or 10% PBS. The absorbance of each well was measured using Fluostar plate reader at […].
as §3

[3] = test system: LoVo (colorectal cancer) cells; assay: In vitro cytotoxicity, PrestoBlue assay, LoVo; format: cell-based, human; settings: 48 h, read-out: IC50 ± SD, LoVo
Experimental: as §1, §2, §3

[4] = test system: MCF-7 (breast cancer) cells; assay: In vitro cytotoxicity, crystal violet assay, MCF-7; format: cell-based, human
Experimental: as §1, §4, §3

[5] = test system: SKOV-3 (ovarian cancer) cells; assay: In vitro cytotoxicity, crystal violet assay, SKOV-3; format: cell-based, human
Experimental: as §1, §4, §3

[6] = test system: HaCaT (human keratinocyte) cells; assay: In vitro cytotoxicity, PrestoBlue assay, HaCaT (non-tumorigenic); format: cell-based; settings: 48 h, read-out: IC50 ± SD, HaCaT
HeLa cells = assay: Cell cycle analysis by flow cytometry (propidium iodide); format: cell-based, human
Experimental: To determine the possible mechanisms of compounds 7 and 11 in inhibiting the proliferation of cancer cells, cell cycle analysis was performed with the flow cytometry method, as shown in Figure 3. Compound 7 was previously reported to inhibit proliferation of HaCaT cells via cell cycle arrest in G2/M [18]. As a reference, HeLa cells were treated with the indicated concentrations of compounds 7 and 11 for 24 h and 48 h, and the cell cycle phases distribution of treated cells was determined with the propidium iodide (PI) method, as previously described. The effects of novel podophyllotoxin derivatives on cell cycle phase distribution were evaluated in cells exposed to these compounds for 24 h or 48 h. Three compounds were compared: podophyllotoxin 1, KL-3 derivative 7, and its analog lacking the ester group 11.
For cell cycle analysis, HeLa cells were treated for 24 or 48 h with compounds 7 and 11 at concentrations of 5 µM and 10 µM. After the incubation period, the cells were fixed in a freezing medium (ice-cold 70% ethanol solution in PBS) and stored at −20 °C. The cell suspension was then centrifuged, washed with PBS, and resuspended in PBS containing 200 µg of DNase-free RNase A (Sigma) for 20 min at room temperature. Propidium iodide (Sigma) was added to a final concentration of 5 µg/mL, and the cells were stained for at least 2 h at 4 °C. The analysis was performed using a FACSCalibur flow cytometer (Becton Dickinson, San Diego, CA, USA) and analyzed with CellQuest software, v.3.3.

[7] = test system: cancer cell lines (MCF-7, SKOV-3, B16F10, LOVO, and HeLa) and HaCaT; assay: In vitro cytotoxicity assay, results summarised over the cell line panel; format: cell-based; settings: for Cytotoxicity in words: all tested cell lines
Experimental: The cytotoxicity properties of semi-synthesized compounds 7–15 was evaluated against five types of cancer cell lines including, human: HeLa (cervix cancer), LoVo (colorectal cancer), MCF-7 (breast cancer), SKOV-3 (ovarian cancer), and murine: B16F10 (malignant melanoma). Thus, various human tumor cell lines representing major types of malignant cancers were included in the study protocol. Non-tumorigenic HaCaT cells were used as a representative model of normal (non-cancerous) cells. The crystal violet assay and PrestoBlue assay were used to evaluate the cytotoxic/cytostatic effect. We also included the cytotoxicity data of podophyllotoxin and etoposide as reference values.
as §1, §4, §2
Data analysis was carried out using GraphPad Prism 5.0.3. Calculations were performed using MS-Excel version 2021. […]

[8] = Homo sapiens; HeLa, crystal violet assay, 48 h; read-out: IC50 ± SD, HeLa
[9] = Homo sapiens, MCF7; MCF-7, crystal violet assay, 48 h; read-out: IC50 ± SD, MCF-7
[10] = Homo sapiens, SK-OV-3; SKOV-3, crystal violet assay, 48 h; read-out: IC50 ± SD, SKOV-3
[11] = concentration and time not given
[12] = Homo sapiens, HeLa, 48 h, HeLa, crystal violet assay, 48 h; read-out: IC50 ± SD, HeLa
[13] = Homo sapiens, MCF7, 48 h, MCF-7, crystal violet assay, read-out: IC50 ± SD, MCF-7
[14] = Homo sapiens, SK-OV-3, 48 h, SKOV-3, crystal violet assay, read-out: IC50 ± SD, SKOV-3
[15] = HeLa, crystal violet assay, 48 h; read-out: IC50 ± SD, HeLa
[16] = MCF-7, crystal violet assay, 48 h; read-out: IC50 ± SD, MCF-7
[17] = SKOV-3, crystal violet assay, 48 h; read-out: IC50 ± SD, SKOV-3
[18] = MCF-7, SKOV-3, B16F10, LOVO, HeLa, read-out: IC50, range over all tested cancer cell lines

Row | SMILES | IC50 ([1]; Mus musculus, B16-F10, 48 h) [µM] | IC50 [2, 8] [µM] | Selectivity Index (SI) ([2]; SI = IC50HaCaT/IC50HeLa) | IC50 ([3]; Homo sapiens) [µM] | IC50 [4, 9] [µM] | IC50 [5, 10] [µM] | IC50 ([6]; Homo sapiens) [µM] | IC50 [2, 12] [µM] | IC50 [4, 13] [µM] | IC50 [5, 14] [µM] | Cytotoxicity in words [7] | also measured
1 | COc1cc([C@@H]2c3cc4c(cc3[C@H](O)[C@H]3COC(=O)[C@H]23)OCO4)cc(OC)c1OC [Compound 1, Podophyllotoxin] | 0.092 ± 0.05 | 0.0089 ± 0.0003 | 0.52 | 0.033 ± 0.0077 | 0.0039 ± 0.0005 | 0.017 ± 0.0028 | 0.0046 ± 0.0006 |  |  |  |  | Cells arrested in the G2/M phase (HeLa cells; [11]): approximately 90%
2 | COc1cc([C@@H]2c3cc4c(cc3[C@@H](O[C@@H]3O[C@@H]5CO[C@@H](C)O[C@H]5[C@H](O)[C@H]3O)[C@H]3COC(=O)[C@H]23)OCO4)cc(OC)c1O [Compound 2, etoposide, reference compound] | 6.68 ± 2.32 |  | 0.23 | 2.48 ± 0.47 |  |  | 1.32 ± 0.16 | 5.73 ± 1.48 | 0.31 ± 0.017 | 3.15 ± 0.38 |  | 
3 | COC(=O)C1C(c2nc3ccccc3s2)=Cc2cc3c(cc2C1c1cc(OC)c(OC)c(OC)c1)OCO3 (stereo not drawn) [Compound 7] |  |  | 1.26 |  |  |  |  |  |  |  |  | IC50 ([1]; 48 h): 1.78 ± 0.55 µM; IC50 [2, 15]: 0.68 ± 0.05 µM; IC50 [3]: 0.83 ± 0.08 µM; IC50 [4, 16]: 0.59 ± 0.05 µM; IC50 [5, 17]: 1.1 ± 0.13 µM; IC50 [6]: 0.86 ± 0.05 µM; Cells arrested in the G2/M phase (HeLa cells; [11]): approximately 90%; IC50 [7, 18]: 0.68 to 2.88 µM
4 | COC(=O)[C@H]1C(c2nc3cc(C(F)(F)F)ccc3s2)=Cc2cc3c(cc2[C@H]1c1cc(OC)c(OC)c(OC)c1)OCO3 [Compound 8] | > 20 |  |  | > 20 |  |  | > 20 | > 20 | > 20 | > 20 | inactive | 
5 | COC(=O)C1C(c2nc3cc(Cl)ccc3s2)=Cc2cc3c(cc2C1c1cc(OC)c(OC)c(OC)c1)OCO3 (stereo not drawn) [Compound 9] | > 20 | 1.81 ± 0.13 | 7.31 | 11.1 ± 2.55 | 2.02 ± 0.11 | 10.4 ± 0.73 | 13.2 ± 2.89 |  |  |  |  | IC50 ([7]; read-out: IC50, range over HeLa and MCF-7): 1.81 to 2.02 µM
6 | COC(=O)C1C(c2nc3ccccc3s2)=Cc2cc3c(cc2C1c1cc(OC)c(OC)c(OC)c1)OCO3 (stereo not drawn) [Compound 10] |  |  |  |  |  |  |  |  |  |  | no cytotoxicity | IC50 ([1]; 48 h): > 20 µM; IC50 [2, 15]: > 20 µM; IC50 [3]: > 20 µM; IC50 [4, 16]: > 20 µM; IC50 [5, 17]: > 20 µM; IC50 [6]: > 20 µM
7 | COc1cc([C@H]2CC(c3nc4ccccc4s3)=Cc3cc4c(cc32)OCO4)cc(OC)c1OC [Compound 11] | 1.93 ± 0.25 |  |  | 2.88 ± 0.87 |  |  | 1.9 ± 0.14 | 1.54 ± 0.24 | 1.98 ± 0.49 | 1.79 ± 0.28 |  | Cells arrested in the G2/M phase (HeLa cells; higher concentrations, after 48 h of exposure): approximately 43%; IC50 [7, 18]: 0.68 to 2.88 µM; IC50 ([7]; read-out: IC50, range over all tested cell lines): 1.54 to 2.88 µM
8 | COC(=O)c1c(-c2nc3ccccc3s2)cc2cc3c(cc2c1-c1cc(OC)c(OC)c(OC)c1)OCO3 [Compound 12] | > 20 |  |  | > 20 |  |  | > 20 | > 20 | > 20 | > 20 | no effect | 
9 | COc1cc([C@@H]2c3cc4c(cc3C=C(c3nc5ccccc5s3)[C@@H]2CO)OCO4)cc(OC)c1OC [Compound 13] | > 20 | > 20 |  | > 20 | > 20 | > 20 | > 20 |  |  |  | no effect | 
10 | COC(=O)[C@H]1C(c2nc3ccccc3s2)=Cc2cc(O)c(O)cc2[C@H]1c1cc(OC)c(O)c(OC)c1 [Compound 14] | > 20 |  | <1 | 11.7 ± 1.02 |  |  | 13.1 ± 1.75 | > 20 | 11.9 ± 1.75 | 15.3 ± 1.31 |  | 
11 | COC(=O)[C@H]1C(c2nc3ccccc3s2)=Cc2cc3c(cc2[C@H]1c1cc(OC)c(O)c(OC)c1)OCO3 [Compound 15] | 3.76 ± 0.49 | 2.49 ± 0.25 | 3.05 | 10.9 ± 0.95 | 3.44 ± 0.81 | 3.73 ± 0.75 | 7.59 ± 0.76 |  |  |  |  | IC50 ([7]; read-out: IC50, range over all the cell lines tested, except for LoVo cells): 2.49 to 3.76 µM

From article PMC12250170, “Synthesis of Novel Podophyllotoxin–Benzothiazole Congeners and Their Biological Evaluation as Anticancer Agents” (International Journal of Molecular Sciences, 2025)
